# From ChEMBL document CHEMBL3804826, “MALT1 Inhibitors May Potentially Treat Lymphomas and Autoimmune Disorders” (ACS Med Chem Lett, 2016)
# Key:
# [1] = target: Baculoviral IAP repeat-containing protein 3/Mucosa-associated lymphoid tissue lymphoma translocation protein 1 (Homo sapiens, UniProt Q13489+Q9UDY8); experiment: Inhibition of cIAP2-MALT1 (unknown origin) expressed in HEK293 cells assessed as inhibition of NFkappaB signaling after 24 hrs by luciferase reporter gene assay; type: cell-based
# [2] = target: T1, Mucosa-associated lymphoid tissue lymphoma translocation protein 1 (Homo sapiens, UniProt Q9UDY8); experiment: Inhibition of MALT1 (unknown origin) expressed in human Jurkat Clone K22 29Q_H23 cells assessed as IL2 production preincubated for 30 mins followed by PMA stimulation for 5.5 hrs by luciferase reporter gene assay; type: cell-based
# T1 sequence (Q9UDY8 whole entry): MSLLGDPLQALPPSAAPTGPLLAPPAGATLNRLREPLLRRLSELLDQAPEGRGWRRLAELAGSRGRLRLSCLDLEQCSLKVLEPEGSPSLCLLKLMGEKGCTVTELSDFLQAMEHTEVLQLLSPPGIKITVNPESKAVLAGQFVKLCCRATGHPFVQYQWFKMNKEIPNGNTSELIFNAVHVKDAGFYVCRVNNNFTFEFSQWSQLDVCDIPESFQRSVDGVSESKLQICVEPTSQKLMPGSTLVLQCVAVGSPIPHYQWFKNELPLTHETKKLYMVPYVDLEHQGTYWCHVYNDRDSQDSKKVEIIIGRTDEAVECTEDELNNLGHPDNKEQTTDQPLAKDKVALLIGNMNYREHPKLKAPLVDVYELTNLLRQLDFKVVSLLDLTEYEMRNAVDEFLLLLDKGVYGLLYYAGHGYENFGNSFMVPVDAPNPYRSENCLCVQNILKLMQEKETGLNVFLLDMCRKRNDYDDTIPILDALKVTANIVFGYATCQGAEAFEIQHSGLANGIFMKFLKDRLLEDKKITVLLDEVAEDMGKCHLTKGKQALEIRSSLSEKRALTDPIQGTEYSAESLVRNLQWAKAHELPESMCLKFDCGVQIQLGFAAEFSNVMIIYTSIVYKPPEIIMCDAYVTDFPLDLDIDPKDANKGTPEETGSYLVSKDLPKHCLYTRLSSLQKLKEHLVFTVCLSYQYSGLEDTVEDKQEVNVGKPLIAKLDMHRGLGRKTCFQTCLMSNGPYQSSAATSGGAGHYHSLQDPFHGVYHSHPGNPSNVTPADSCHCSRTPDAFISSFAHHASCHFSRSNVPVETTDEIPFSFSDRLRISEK
# Baculoviral IAP repeat-containing protein 3/Mucosa-associated lymphoid tissue lymphoma translocation protein 1, sequence (Q13489 whole entry, one chain of several): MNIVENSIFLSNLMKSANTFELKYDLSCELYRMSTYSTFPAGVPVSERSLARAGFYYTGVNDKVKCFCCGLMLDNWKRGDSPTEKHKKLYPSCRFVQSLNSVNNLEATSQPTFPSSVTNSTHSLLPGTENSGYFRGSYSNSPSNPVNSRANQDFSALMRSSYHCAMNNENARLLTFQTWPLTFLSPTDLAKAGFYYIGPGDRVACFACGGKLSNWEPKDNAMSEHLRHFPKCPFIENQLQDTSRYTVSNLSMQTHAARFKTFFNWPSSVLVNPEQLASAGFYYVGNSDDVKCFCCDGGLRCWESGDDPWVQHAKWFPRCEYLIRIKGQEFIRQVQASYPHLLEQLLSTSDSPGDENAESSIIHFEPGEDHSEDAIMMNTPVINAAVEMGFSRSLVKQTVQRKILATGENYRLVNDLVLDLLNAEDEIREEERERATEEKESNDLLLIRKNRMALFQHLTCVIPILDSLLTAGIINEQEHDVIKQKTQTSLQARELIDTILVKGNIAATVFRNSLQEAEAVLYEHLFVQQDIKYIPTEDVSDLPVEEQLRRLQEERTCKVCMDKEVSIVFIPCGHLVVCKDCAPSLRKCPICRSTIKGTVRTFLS
SMILES,IC50 [1] [nM],IC50 [2] [nM]
COCC(c1c(NC(=O)Nc2cnc(-n3nccn3)c(Cl)c2)cnc2cc(Cl)nn12)C1CC1 (stereo unspecified),84,28
CC(C)c1c(NC(=O)Nc2cnc(N3CCCS3(=O)=O)c(C(F)(F)F)c2)cnc2cc(Cl)nn12,54,248
CO[C@@H](C)c1c(NC(=O)Nc2cncc(C(F)(F)F)c2)cnc2cc(C)nn12,132,52
